Data from BigSolDB 2.1.

COc1cc(Cc2cnc(N)nc2N)cc(OC)c1OC
solubility (mole fraction)
Conditions | 293.15 K | 298.45 K | 303.45 K | 308.15 K | 312.95 K | 318.65 K | 322.65 K
in acetonitrile | 0.00035 | 0.000437 | 0.000534 | 0.000664 | 0.000809 | 0.00103 | 0.00127
in ethanol | 0.00071 | 0.00092 | 0.00112 | 0.00134 | 0.00173 | 0.00226 | 0.00304
in ethyl acetate | 0.000276 | 0.000332 | 0.000398 | 0.000481 | 0.000606 | 0.000773 | 0.000966
in isopropanol | 0.000227 | 0.000294 | 0.000434 | 0.000543 | 0.000764 | 0.00106 | 0.00141
in water | 2e-05 | 2.49e-05 | 3.02e-05 | 3.68e-05 | 4.68e-05 | 6.05e-05 | 7.14e-05
